Data reported in patent US8541575B2, “3,4-diarylpyrazoles as protein kinase inhibitors” (Nerviano Medical Sciences S.R.L., priority 2008, dated 2013).

Tests used:
Format in all cases: cell-based
[1] = system: human melanoma cells Mewo (with wild-type B-Raf); assay: In vitro cell proliferation assay, Mewo; settings: 72 hours treatment, cellular ATP readout
Procedure: (§1) In Vitro Cell Proliferation Assay
(§2) Exponentially growing human melanoma cells A375 (with a mutated B-RAF) and human melanoma cells Mewo (with wild-type B-Raf) were seeded and incubated at 37° C. in a humidified 5% CO2 atmosphere. After 24 hours, scalar doses of the compound were added to the medium and cells oncubated for 72 hours. At the end of treatment, cells were washed and counted. Cell number was determined by a cellular adenosine triphosphate monitoring system. Cell proliferation was compared to control cells and the concentration inhibiting cell growth by 50% was calculated.

[2] = system: p-MAPK (T202/Y204) in A375 human melanoma cells, having a mutated B-RAF; assay: p-MAPK (T202/Y204) ArrayScan assay; settings: A-375, treated 1.5 or 2 hours, p-MAPK cytoplasmatic fluorescence, read-out: Array Scan A375 IC50
Procedure: p-MAPK (T202/Y204) ArrayScan Assay
A375 human melanoma cells, having a mutated B-RAF, are seeded in 384-well poly-lysine coated plates (Matrix) at a density of 1000 cells/well with appropriate medium supplemented with 10% FCS and incubated for 16-24 hours. Cells are treated for 1.5 or 2 hours with increasing doses of compounds (starting dose 10 μM, dilution factor 2.5). At the end of the treatment cells are fixed with p-formaldehyde 3.7% for 15-30 min, then washed twice with D-PBS […] and permeabilized with D-PBS containing 0.1% Triton X-100 and 1% BSA (Sigma-Aldrich) for 15 minutes at room temperature (staining solution). Anti-phospho-MAPK (T202/Y204) monoclonal antibody E10 (Cell Signaling, cat. #9106) diluted 1:100 is added in staining solution and incubated for 1 hour at 37° C. After removal of the primary antibody solution, the anti-mouse Cy™2-conjugated (Green) secondary antibody (Amersham) diluted 1:500 in staining solution containing 2 μg/ml DAPI is added. The plate is incubated for 1 hour at 37° C., washed twice and then red with Cellomics' ArrayScan VTI (4 fields/well, CytoNucTrans algorithm).
The parameter “MEAN_RingAvgIntenCh2”, which measures the mean cytoplasmatic fluorescence intensity associated to p-MAPK staining, is reported as the final result.

[3] = system: human melanoma cells A375 (with a mutated B-RAF); assay: In vitro cell proliferation assay, A375; settings: A-375, 72 hours treatment, cellular ATP readout
Procedure: as §1, §2

Compound	IC50 [1]	IC50 [2]	IC50 [3]
O=C(Nc1ccc(C(F)(F)F)cc1)Nc1cccc(-c2n[nH]cc2-c2ccncc2)c1 [Cmpd. 1, 1-[3-(4-Pyridin-4-yl-1H-pyrazol-3-yl)-phenyl]-3-(4-trifluoromethyl-phenyl)-urea]	8.6 µM	0.93 µM	1.02 µM
O=S(=O)(Nc1cccc(-c2n[nH]cc2-c2ccncc2)c1)c1cc(F)ccc1F [Cmpd. 2, 2,5-Difluoro-N-[3-(4-pyridin-4-yl-1H-pyrazol-3-yl)-phenyl]-benzenesulfonamide]	> 10 µM	0.64 µM	1.4 µM
CC(C)(C)c1ccc(NC(=O)c2cccc(-c3n[nH]cc3-c3ccncc3)c2)cc1 [Cmpd. 4, N-(4-tert-Butyl-phenyl)-3-(4-pyridin-4-yl-1H-pyrazol-3-yl)-benzamide]	5.84 µM	1.26 µM	2.31 µM
O=C(Nc1cccc(-c2nn(CCF)cc2-c2ccncc2)c1)Nc1ccc(Cl)c(C(F)(F)F)c1 [Cmpd. 5, 1-(4-Chloro-3-trifluoromethyl-phenyl)-3-{3-[1-(2-fluoro-ethyl)-4-pyridin-4-yl-1H-pyrazol-3-yl]-phenyl}-urea]	6.76 µM	2.09 µM	4.31 µM
O=S(=O)(Nc1cccc(-c2n[nH]cc2-c2ccncc2)c1)c1ccco1 [Cmpd. 6, Furan-2-sulfonic acid [3-(4-pyridin-4-yl-1H-pyrazol-3-yl)-phenyl]amide]	> 10 µM	5.47 µM	7.52 µM
O=S(=O)(Nc1cccc(-c2n[nH]cc2-c2ccncc2)c1)c1ccsc1 [Cmpd. 7, Thiophene-3-sulfonic acid [3-(4-pyridin-4-yl-1H-pyrazol-3-yl)-phenyl]-amide]	> 10 µM	5.52 µM	7.38 µM
O=C(Nc1ccc(C(F)(F)F)cc1)Nc1cccc(-c2nn(CCF)cc2-c2ccncc2)c1 [Cmpd. 13, 1-{3-[1-(2-Fluoro-ethyl)-4-pyridin-4-yl-1H-pyrazol-3-yl]-phenyl}-3-(4-trifluoromethyl-phenyl)-urea]	8.11 µM	0.56 µM	1.38 µM
O=C(Nc1ccc(C(F)(F)F)cc1)Nc1cccc(-c2nn(CCO)cc2-c2ccncc2)c1 [Cmpd. 14, 1-{3-[1-(2-Hydroxy-ethyl)-4-pyridin-4-yl-1H-pyrazol-3-yl]-phenyl}-3-(4-trifluoromethyl-phenyl)-urea]	> 10 µM	2.63 µM	6.94 µM
O=C(Cc1ccc(C(F)(F)F)cc1)Nc1cccc(-c2n[nH]cc2-c2ccncc2)c1 [Cmpd. 16, N-[3-(4-Pyridin-4-yl-1H-pyrazol-3-yl)-phenyl]-2-(4-trifluoromethyl-phenyl)-acetamide]	> 10 µM	1.34 µM	2.89 µM
CC(=O)Nc1cc(-c2c[nH]nc2-c2cccc(NC(=O)Nc3ccc(C(F)(F)F)cc3)c2)ccn1 [Cmpd. 17, N-[4-(3-{3-[3-(4-Trifluoromethyl-phenyl)-ureido]-phenyl}-1H-pyrazol-4-yl)-pyridin-2-yl]-acetamide]	9.4 µM	< 0.04 µM	0.25 µM
O=S(=O)(Nc1ccc(F)c(-c2n[nH]cc2-c2ccncc2)c1F)c1cc(F)ccc1F [Cmpd. 18, N-[2,4-Difluoro-3-(4-pyridin-4-yl-1H-pyrazol-3-yl)-phenyl]-2,5-difluoro-benzenesulfonamide]	> 10 µM	0.36 µM	0.72 µM
O=S(=O)(Nc1ccc(F)c(-c2n[nH]cc2-c2ccncc2)c1F)c1ccsc1 [Cmpd. 19, Thiophene-3-sulfonic acid [2,4-difluoro-3-(4-pyridin-4-yl-1H-pyrazol-3-yl)-phenyl]-amide]	> 10 µM	0.83 µM	3.17 µM
O=S(=O)(Nc1ccc(F)c(-c2n[nH]cc2-c2ccncc2)c1F)c1ccco1 [Cmpd. 20, Furan-2-sulfonic acid [2,4-difluoro-3-(4-pyridin-4-yl-1H-pyrazol-3-yl)-phenyl]amide]	> 10 µM	5.48 µM	9.14 µM

Now from value to molecule:

IC50 [1]	IC50 [2]	IC50 [3]	Compound
> 10 µM	1.79 µM	4.28 µM	CCCS(=O)(=O)Nc1ccc(F)c(-c2n[nH]cc2-c2ccncc2)c1F [Cmpd. 21, Propane-1-sulfonic acid [2,4-difluoro-3-(4-pyridin-4-yl-1H-pyrazol-3-yl)-phenyl]-amide]
> 10 µM	0.75 µM	2.66 µM	CCOC(=O)n1cc(-c2ccncc2)c(-c2cccc(NC(=O)Nc3ccc(C(F)(F)F)cc3)c2)n1 [Cmpd. 47, 4-Pyridin-4-yl-3-{3-[3-(4-trifluoromethyl-phenyl)-ureido]-phenyl}-pyrazole-1-carboxylic acid ethyl ester]
> 10 µM	1.79 µM	3.86 µM	Cn1cc(-c2ccncc2)c(-c2cccc(NC(=O)Nc3ccc(C(F)(F)F)cc3)c2)n1 [Cmpd. 48, 1-[3-(1-Methyl-4-pyridin-4-yl-1H-pyrazol-3-yl)-phenyl]-3-(4-trifluoromethyl-phenyl)-urea]
5.09 µM	1.12 µM	1.9 µM	CC(C)Cn1cc(-c2ccncc2)c(-c2cccc(NC(=O)Nc3ccc(C(F)(F)F)cc3)c2)n1 [Cmpd. 50, 1-[3-(1-Isobutyl-4-pyridin-4-yl-1H-pyrazol-3-yl)-phenyl]-3-(4-trifluoromethyl-phenyl)-urea]
> 10 µM	< 0.01 µM	< 0.02 µM	CCn1cc(-c2ccncc2)c(-c2c(F)ccc(NS(=O)(=O)c3cc(F)ccc3F)c2F)n1 [Cmpd. 51, N-[3-(1-Ethyl-4-pyridin-4-yl-1H-pyrazol-3-yl)-2,4-difluoro-phenyl]-2,5-difluoro-benzenesulfonamide]
> 10 µM	0.02 µM	0.33 µM	CCn1cc(-c2ccncc2)c(-c2c(F)ccc(NS(=O)(=O)c3ccccc3F)c2F)n1 [Cmpd. 57, N-[3-(1-Ethyl-4-pyridin-4-yl-1H-pyrazol-3-yl)-2,4-difluoro-phenyl]-2-fluoro-benzenesulfonamide]
> 10 µM	0.04 µM	0.29 µM	CCn1cc(-c2ccncc2)c(-c2c(F)ccc(NS(=O)(=O)c3cccc(F)c3)c2F)n1 [Cmpd. 58, N-[3-(1-Ethyl-4-pyridin-4-yl-1H-pyrazol-3-yl)-2,4-difluoro-phenyl]-3-fluoro-benzenesulfonamide]
> 10 µM	1.45 µM	4.48 µM	Cc1ccc(NC(=O)Nc2cccc(-c3n[nH]cc3-c3ccncc3)c2)cc1 [compound 8, 1-[3-(4-Pyridin-4-yl-1H-pyrazol-3-yl)-phenyl]-3-p-tolyl-urea]
> 10 µM	4.8 µM	4.1 µM	O=C(Nc1ccc(Cl)cc1)Nc1cccc(-c2n[nH]cc2-c2ccncc2)c1 [compound 9, 1-(4-Chloro-phenyl)-3-[3-(4-pyridin-4-yl-1H-pyrazol-3-yl)-phenyl]-urea]
7.5 µM	0.54 µM	1.63 µM	CCn1cc(-c2ccncc2)c(-c2cccc(NC(=O)Nc3ccc(C(F)(F)F)cc3)c2)n1 [compound 10, 1-[3-(1-Ethyl-4-pyridin-4-yl-1H-pyrazol-3-yl)-phenyl]-3-(4-trifluoromethyl-phenyl)-urea]
7.69 µM	0.23 µM	1.13 µM	N#CCn1cc(-c2ccncc2)c(-c2cccc(NC(=O)Nc3ccc(C(F)(F)F)cc3)c2)n1 [compound 11, 1-[3-(1-Cyanomethyl-4-pyridin-4-yl-1H-pyrazol-3-yl)-phenyl]-3-(4-trifluoromethyl-phenyl)-urea]
> 10 µM	4.65 µM	5.96 µM	Nc1cc(-c2c[nH]nc2-c2cccc(NC(=O)Nc3ccc(C(F)(F)F)cc3)c2)ccn1 [compound 12, 1-{3-[4-(2-aminopyridin-4-yl)-1H-pyrazol-3-yl]phenyl}-3-[4(trifluoromethyl)-phenyl]urea]
> 10 µM	0.73 µM	2.7 µM	Nc1nccc(-c2c[nH]nc2-c2cccc(NC(=O)Nc3ccc(C(F)(F)F)cc3)c2)n1 [compound 31, 1-{3-[4-(2-aminopyrimidin-4-yl)-1H-pyrazol-3-yl]phenyl}-3-[4-(trifluoromethyl)-phenyl]urea]
> 10 µM	2.51 µM	5.32 µM	CC(=O)Nc1nccc(-c2c[nH]nc2-c2cccc(NC(=O)Nc3ccc(C(F)(F)F)cc3)c2)n1 [compound 32, N-(4-{3-[3-({[4-(trifluoromethyl)phenyl]carbamoyl}amino)phenyl]-1H-pyrazol-4-yl}pyrimidin-2-yl)acetamide]
> 10 µM	0.34 µM	3.18 µM	Nc1nccc(-c2c[nH]nc2-c2cccc(NS(=O)(=O)c3cc(F)ccc3F)c2)n1 [compound 34, N-{3-[4-(2-aminopyrimidin-4-yl)-1H-pyrazol-3-yl]phenyl}-2,5-difluorobenzene-sulfonamide]
